Here are results for 37 molecules from US9862717B2 (Merck Patent GmbH, priority 2014, dated 2018).

T1 sequence (P49336 whole entry): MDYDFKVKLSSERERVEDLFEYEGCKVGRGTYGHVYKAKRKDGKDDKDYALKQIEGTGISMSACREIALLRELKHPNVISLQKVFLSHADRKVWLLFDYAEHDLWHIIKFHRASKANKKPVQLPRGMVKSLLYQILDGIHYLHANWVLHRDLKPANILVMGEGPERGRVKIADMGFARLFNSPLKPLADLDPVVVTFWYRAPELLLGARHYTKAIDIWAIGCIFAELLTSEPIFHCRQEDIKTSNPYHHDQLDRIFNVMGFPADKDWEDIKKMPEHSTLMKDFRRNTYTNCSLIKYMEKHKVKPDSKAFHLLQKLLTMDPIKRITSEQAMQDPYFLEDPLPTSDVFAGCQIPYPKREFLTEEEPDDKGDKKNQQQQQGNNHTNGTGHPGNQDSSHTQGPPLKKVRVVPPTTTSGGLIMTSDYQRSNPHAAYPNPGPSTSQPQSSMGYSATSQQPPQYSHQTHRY
T1 sequence (P24863 whole entry partner): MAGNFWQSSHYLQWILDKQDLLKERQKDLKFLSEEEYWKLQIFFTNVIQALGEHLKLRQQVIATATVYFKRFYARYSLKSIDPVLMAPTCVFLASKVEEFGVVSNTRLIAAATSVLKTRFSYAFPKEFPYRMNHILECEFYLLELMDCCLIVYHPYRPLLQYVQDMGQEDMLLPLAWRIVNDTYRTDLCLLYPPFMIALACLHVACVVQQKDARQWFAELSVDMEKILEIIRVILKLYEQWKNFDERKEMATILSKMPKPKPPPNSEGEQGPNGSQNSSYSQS

One test concerns the target T1, CDK8/CycC (Homo sapiens, UniProt P49336).
T1 construct: purchased Invitrogen PV4402
Put plainly: FRET based Lanthascreen binding competition assay for CDK8 inhibitory activity. To be noted: CDK8 co-expressed with CycC; class symbols. Summed up: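 Competition binding of a dye-labeled ATP-competitive Alexa647 probe to CDK8 co-expressed with CycC, Eu-labeled via biotinylated anti-His antibody/streptavidin.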
`Cc1n[nH]c2ncc(C(=O)N3CCCC3c3ccccc3OCC(F)(F)F)cc12` (stereo not shown) [compound 162, (3-Methyl-1H-pyrazolo[3,4-b]pyridin-5-yl)-{2-[2-(2,2,2-trifluoro-ethoxy)-phenyl]-pyrrolidin-1-yl}-methanone]: the IC50 fell in the range of 0.1 to 1 µM.

Staying with this test, now noted: CDK8 co-expressed with CycC; class symbols; read-out: IC50.
Turning to `CSc1ccccc1[C@@H]1CCCN1C(=O)c1cnc2[nH]nc(C)c2c1` [compound 33, (3-Methyl-1H-pyrazolo[3,4-b]pyridin-5-yl)-[(S)-2-(2-methylsulfanyl-phenyl)-pyrrolidin-1-yl]-methanone], the IC50 was in the range of 0.1 to 1 µM.

Consider `Cc1n[nH]c2ncc(C(=O)N3CCCC(c4ccc(Cl)cc4)C3)cc12` (stereo not shown) [compound 67, [3-(4-Chloro-phenyl)-piperidin-1-yl]-(3-methyl-1H-pyrazolo[3,4-b]pyridin-5-yl)-methanone], for which the concentration for half-maximal inhibition (IC50) is 0.01 to 0.1 µM.

Regarding `Cc1n[nH]c2ncc(C(=O)N3CCC[C@H]3c3ccc(Br)cc3)cc12` [compound 2, [(S)-2-(4-Bromo-phenyl)-pyrrolidin-1-yl]-(3-methyl-1H-pyrazolo[3,4-b]pyridin-5-yl)-methanone], the IC50 was less than 0.01 µM.

Consider `Cc1n[nH]c2ncc(C(=O)N3CCC[C@H]3c3ccc(Cl)cc3F)cc12` [compound 225, [(S)-2-(4-Chloro-2-fluoro-phenyl)-pyrrolidin-1 yl]-(3-methyl-1H-pyrazolo[3,4-b]pyridin-5-yl)-methanone], for which the IC50 was less than 0.01 µM.

For `Cc1n[nH]c2ccc(C(=O)N3CCC[C@H]3c3ccc(Br)cc3)cc12` [compound 49, [(S)-2-(4-Bromo-phenyl)-pyrrolidin-1-yl]-(3-methyl-1H-indazol-5-yl)-methanone], the IC50 is less than 0.01 µM.

Regarding `Cc1n[nH]c2ncc(C(=O)N3CCC[C@H]3c3ccc4cn[nH]c4c3)cc12` [compound 230, [(S)-2-(1H-Indazol-6-yl)-pyrrolidin-1-yl]-(3-methyl-1H-pyrazolo[3,4-b]pyridin-5-yl)-methanone], the 50% inhibitory concentration (IC50) lay in the range of 0.01 to 0.1 µM.

Take `Cc1n[nH]c2ncc(C(=O)N3C[C@H](c4ccc(Cl)cc4)[C@@H](O)C3)cc12` [compound 256, [(3S,4R)-3-(4-Chloro-phenyl)-4-hydroxy-pyrrolidin-1-yl]-(3-methyl-1H-pyrazolo[3,4-b]pyridin-5-yl)-methanone]: the 50% inhibitory concentration (IC50) is less than 0.01 µM.

`CC(=O)N[C@@H]1CN(C(=O)c2cnc3[nH]nc(C)c3c2)C[C@H]1c1ccc(Cl)cc1` (racemic) [compound 264, N-[(3S,4R)-4-(4-Chloro-phenyl)-1-(3-methyl-1H-pyrazolo[3,4-b]pyridine-5-carbonyl)-pyrrolidin-3-yl]-acetamide (racemic)]: the half-inhibitory concentration (IC50) was 0.01 to 0.1 µM.

Regarding `Cc1n[nH]c2ncc(C(=O)N3CCC(C(N)=O)CC3c3ccccc3)cc12` (stereo not shown) [compound 235, 1-(3-Methyl-1H-pyrazolo[3,4-b]pyridine-5-carbonyl)-2-phenyl-piperidine-4-carboxylic acid amide], the IC50 lay within 0.1 to 1 µM.

`Cc1n[nH]c2ncc(C(=O)N3CC[C@@H](c4ccccc4)C3)cc12` [compound 41, (3-Methyl-1H-pyrazolo[3,4-b]pyridin-5-yl)-((S)-3-phenyl-pyrrolidin-1-yl)-methanone]: the 50% inhibitory concentration (IC50) is 0.01 to 0.1 µM.

Regarding `CC(C)c1ccc(C2CCCN2C(=O)c2ccc3[nH]nc(N)c3c2)cc1` (racemic) [compound 191, (3-Amino-1H-indazol-5-yl)-[2-(4-isopropyl-phenyl)-pyrrolidin-1-yl]-methanone], the IC50 lay in the range of 0.01 to 0.1 µM.

Take `Nc1n[nH]c2ccc(C(=O)N3CCC(CCO)(c4ccc(Cl)cc4)C3)cc12` (stereo not shown) [compound 250, (3-Amino-1H-indazol-5-yl)-[3-(4-chloro-phenyl)-3-(2-hydroxy-ethyl)-pyrrolidin-1-yl]-methanone]: the IC50 lay in the range of 0.1 to 1 µM.

Consider `Cc1n[nH]c2ncc(C(=O)N3CCCC3c3ccc(Cl)c(F)c3)cc12` (stereo not shown) [compound 69, [2-(4-Chloro-3-fluoro-phenyl)-pyrrolidin-1-yl]-(3-methyl-1H-pyrazolo[3,4-b]pyridin-5-yl)-methanone], for which the 50% inhibitory concentration (IC50) was 0.01 to 0.1 µM.

Take `Cc1n[nH]c2ncc(C(=O)N3CCCCCC3c3cccc(F)c3)cc12` (stereo not shown) [compound 58, [2-(3-Fluoro-phenyl)-azepan-1-yl]-(3-methyl-1H-pyrazolo[3,4-b]pyridin-5-yl)-methanone]: the IC50 fell in the range of 0.01 to 0.1 µM.

In the case of `Cc1n[nH]c2ncc(C(=O)N3CCNC(=O)[C@H]3c3ccc(F)cc3)cc12` [compound 215, (R)-3-(4-Fluoro-phenyl)-4-(3-methyl-1H-pyrazolo[3,4-b]pyridine-5-carbonyl)-piperazin-2-one], the concentration for half-maximal inhibition (IC50) fell in the range of 1 to 10 µM.

Turning to `O=C(c1ccc2[nH]nc(Cl)c2c1)N1CCCC1c1ccc(C(F)(F)F)cc1` (stereo not shown) [compound 219, (3-Chloro-1H-indazol-5-yl)-[2-(4-trifluoromethyl-phenyl)-pyrrolidin-1-yl]-methanone], the concentration for half-maximal inhibition (IC50) was in the range of 0.01 to 0.1 µM.

Turning to `Cc1n[nH]c2ncc(C(=O)N3CCCC3c3ccc(F)cc3)cc12` (stereo not shown) [compound 26, [2-(4-Fluoro-phenyl)-pyrrolidin-1-yl]-(3-methyl-1H-pyrazolo[3,4-b]pyridin-5-yl)-methanone], the IC50 is less than 0.01 µM.

Regarding `CC(=O)N[C@@H]1CN(C(=O)c2ccc3[nH]nc(N)c3c2)C[C@H]1c1ccc(Cl)cc1` (racemic) [compound 263, N-[(3S,4R)-1-(3-Amino-1H-indazole-5-carbonyl)-4-(4-chloro-phenyl)-pyrrolidin-3-yl]-acetamide (racemic)], the 50% inhibitory concentration (IC50) lay within 0.01 to 0.1 µM.

`Cc1n[nH]c2ncc(C(=O)N3CCC(CCO)(c4ccc(Cl)cc4)C3)cc12` (stereo not shown) [compound 249, [3-(4-Chloro-phenyl)-3-(2-hydroxy-ethyl)-pyrrolidin-1-yl]-(3-methyl-1H-pyrazolo[3,4-b]pyridin-5-yl)-methanone]: the IC50 fell in the range of 0.01 to 0.1 µM.

`Nc1n[nH]c2ccc(C(=O)N3CCC(c4ccccc4)C3)cc12` (stereo not shown) [compound 84, (3-Amino-1H-indazol-5-yl)-(3-phenyl-pyrrolidin-1-yl)-methanone]: the half-maximal inhibitory concentration (IC50) lay in the range of 0.1 to 1 µM.

`Cc1n[nH]c2ncc(C(=O)N3CCC(O)(c4ccccc4)C3)cc12` (stereo in doubt) [compound 199, ((R)-3-Hydroxy-3-phenyl-pyrrolidin-1-yl)-(3-methyl-1H-pyrazolo[3,4-b]pyridin-5-yl)-methanone]: the IC50 lay within 1 to 10 µM.

For `Cc1n[nH]c2ncc(C(=O)N3CCC[C@@H]3c3ccc(Br)cc3)cc12` [compound 3, [(R)-2-(4-Bromo-phenyl)-pyrrolidin-1-yl]-(3-methyl-1H-pyrazolo[3,4-b]pyridin-5-yl)-methanone], the IC50 lay within 0.1 to 1 µM.

For the molecule `Cc1n[nH]c2ncc(C(=O)N3CCCCC3c3ccccc3)cc12` (stereo not shown) [compound 18, (3-Methyl-1H-pyrazolo[3,4-b]pyridin-5-yl)-(2-phenyl-piperidin-1-yl)-methanone], the IC50 was in the range of 0.01 to 0.1 µM.

In the case of `Cc1n[nH]c2ncc(C(=O)N3CCC[C@H]3c3ccc4[nH]ncc4c3)cc12` [compound 245, [(S)-2-(1H-Indazol-5-yl)-pyrrolidin-1-yl]-(3-methyl-1H-pyrazolo[3,4-b]pyridin-5-yl)-methanone], the 50% inhibitory concentration (IC50) lay in the range of 0.01 to 0.1 µM.

Consider `O=C(c1cnc2[nH]nc(C(F)(F)F)c2c1)N1CCCC1c1ccc(Cl)cc1` (racemic) [compound 177, [2-(4-Chloro-phenyl)-pyrrolidin-1-yl]-(3-trifluoromethyl-1H-pyrazolo[3,4-b]pyridin-5-yl)-methanone], for which the 50% inhibitory concentration (IC50) is 0.01 to 0.1 µM.

On to `COc1n[nH]c2ncc(C(=O)N3CCC[C@H]3c3ccc(Cl)cc3)cc12` [compound 243, (S)-(2-(4-chlorophenyl)pyrrolidin-1-yl)(3-methoxy-1H-pyrazolo[3,4-b]pyridin-5-yl)methanone], for which the IC50 is 0.01 to 0.1 µM.

With `Nc1n[nH]c2ccc(C(=O)N3CCCC3c3ccccc3Cl)cc12` (stereo not shown) [compound 148, (3-Amino-1H-indazol-5-yl)-[2-(2-chloro-phenyl)-pyrrolidin-1-yl]-methanone], the 50% inhibitory concentration (IC50) was in the range of 0.1 to 1 µM.

On to `Cc1n[nH]c2ncc(C(=O)N3CCCC(c4ccccc4)C3)cc12` (stereo not shown) [compound 66, (3-Methyl-1H-pyrazolo[3,4-b]pyridin-5-yl)-(3-phenyl-piperidin-1-yl)-methanone], for which the IC50 lay in the range of 0.1 to 1 µM.

For `Cc1n[nH]c2ncc(C(=O)N3CC[C@H](C)C3c3ccc(C(F)(F)F)cc3)cc12` (stereo in doubt) [compound 171, (3-Methyl-1H-pyrazolo[3,4-b]pyridin-5-yl)-[(2S,3S)-3-methyl-2-(4-trifluoromethyl-phenyl)-pyrrolidin-1-yl]-methanone], the half-maximal inhibitory concentration (IC50) lay within 0.01 to 0.1 µM.

`O=C(c1cnc2[nH]nc(C3CC3)c2c1)N1CCCCC1c1ccccc1` (stereo not shown) [compound 168, (3-Cyclopropyl-1H-pyrazolo[3,4-b]pyridin-5-yl)-(2-phenyl-piperidin-1-yl)-methanone]: the IC50 lay in the range of 0.1 to 1 µM.

With `CCOc1ccccc1C1CCCN1C(=O)c1ccc2[nH]nc(N)c2c1` (stereo not shown) [compound 113, (3-Amino-1H-indazol-5-yl)-[2-(2-ethoxy-phenyl)-pyrrolidin-1-yl]-methanone], the concentration for half-maximal inhibition (IC50) was 0.1 to 1 µM.

In the case of `Cc1n[nH]c2ncc(C(=O)N3C[C@@H](O)C[C@H]3c3ccc(F)cc3)cc12` [compound 145, [(2S,4S)-2-(4-Fluoro-phenyl)-4-hydroxy-pyrrolidin-1-yl]-(3-methyl-1H-pyrazolo[3,4-b]pyridin-5-yl)-methanone], the half-inhibitory concentration (IC50) fell in the range of 0.1 to 1 µM.

Still in this test, the particulars now being: IC50 [μM], CDK8 co-expressed with CycC; class symbols.
As for `Nc1n[nH]c2ccc(C(=O)N3CCC[C@@H]3c3ccc(F)cc3)cc12` [compound 120, (3-Amino-1H-indazol-5-yl)-[(R)-2-(4-fluoro-phenyl)-pyrrolidin-1-yl]-methanone], the IC50 is 0.1 to 1 µM.

Take `Cc1n[nH]c2ncc(C(=O)N3CCC[C@H]3c3ccc(Cl)cc3)cc12` [compound 13]: the IC50 was less than 0.01 µM.

Consider `Nc1n[nH]c2ccc(C(=O)N3CCC[C@H]3c3ccc(Cl)cc3)cc12` [compound 79, (3-Amino-1H-indazol-5-yl)-[(S)-2-(4-chloro-phenyl)-pyrrolidin-1-yl]-methanone], for which the IC50 is less than 0.01 µM.

`Cc1n[nH]c2ncc(C(=O)N3CCC[C@@H]3c3ccc(Cl)cc3)cc12` [compound 14, [(R)-2-(4-Chloro-phenyl)-pyrrolidin-1-yl]-(3-methyl-1H-pyrazolo[3,4-b]pyridin-5-yl)-methanone] returned an IC50 of 0.1 to 1 µM.
